# Article PMC3138742 (PLoS ONE, 2011)
# Assays:
# [1] = tested on: EGFR phosphorylation in NIH3T3-EGFR T790M/L858R cells; experiment: Western blot of EGFR phosphorylation; format: cell-based; conditions: 6 h, immunoblotting
# Method: Cell viability was determined using sulforhodamine B assay. IC50 values were determined based on the results of three independent experiments. […] Whole-cell lysates were assayed for total EGFR and phosphorylation of EGFR by immunoblotting. […] Cell viability was determined using sulforhodamine B assay.
# ErbB2 = ErbB2 (Homo sapiens, UniProt P04626); experiment: Rapid dilution irreversibility experiment; format: biochemical; parameters: The kinase domain of EGFR, ErbB-2, IGF1R, VEGFR2, FGFR1, PDGFRα, c-Src, c-Met, RON, c-Kit, EphA2 and EphB2 were expressed; made in house; conditions: preincubated 30 min at 100-fold IC50, diluted 100-fold, sampled 180 minutes
# Method: The microplate was placed in the EZ Reader (Caliper Life Sciences, MA) and wells were repeatedly sampled for 180 minutes.
# To verify this, we determined the reversibility of EGFR and ErbB2 binding using a dilution method. […] After incubating, the enzyme/inhibitor mixture is diluted 100-fold (i.e., to normal reaction conditions), reaction buffer plus ATP and substrate are added, and receptor kinase activity is measured continuously. In general, a reversible inhibitor dissociates quickly, allowing immediate recovery of enzymatic activity, whereas a slowly reversible inhibitor allows a gradual increase in activity. In contrast, an irreversible inhibitor prevents recovery of enzymatic activity.
# SK-OV-3 xenograft = experiment: Human tumor xenograft model, tumor growth; format: in vivo; conditions: nude mice, p.o. twice daily
# Method: (§1) The mice were housed and maintained under specific-pathogen free (SPF) conditions. All animal procedures were performed according to the protocol approved by the Institutional Animal Care and Use Committee at Shanghai Institute of Materia Medica, Chinese Academy of Sciences (SIMM-AE-DJ-2010-01). Under sterile conditions, well-developed tumors were cut into 1-mm^3 fragments and transplanted s.c. into the right flank of nude mice using a trocar. When the tumor reached a volume reached 100 to 200 mm^3, the mice were randomly assigned into control and treatment groups. […] The sizes of the tumors were measured twice per week using microcalipers. The tumor volume (V) was calculated as follows: V = (length×width^2)/2. The body weights of the mice were observed simultaneously.
# Calu-3 xenograft = experiment: Human tumor xenograft model, tumor growth; format: in vivo; conditions: nude mice, p.o. twice daily
# Method: as §1
# ErbB2, sequence (P04626 720-987 limits assumed): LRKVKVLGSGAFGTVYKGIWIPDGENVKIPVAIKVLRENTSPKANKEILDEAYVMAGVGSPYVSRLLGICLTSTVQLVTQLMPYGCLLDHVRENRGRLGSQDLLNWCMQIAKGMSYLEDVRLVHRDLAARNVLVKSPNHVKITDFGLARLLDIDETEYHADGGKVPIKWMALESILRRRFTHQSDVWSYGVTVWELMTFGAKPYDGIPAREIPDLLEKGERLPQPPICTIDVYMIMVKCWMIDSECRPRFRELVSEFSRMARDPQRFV
smiles,measurement,setting,value
"CS(=O)(=O)CCNCc1ccc(-c2ccc3ncnc(Nc4ccc(OCc5cccc(F)c5)c(Cl)c4)c3c2)o1 [lapatinib, reference compound]",inhibition of EGFR phosphorylation,[1],much weaker inhibitory effect
same,recovery of ErbB2 enzymatic activity after dilution,ErbB2,slow recovery of the enzymatic activity
same,tumor growth,SK-OV-3 xenograft,exhibited antitumor activity
same,tumor growth,Calu-3 xenograft,exhibited antitumor activity
